Reference: patent publication US7214395B2, “Pharmaceutical and cosmetic composition against skin aging” (Indena S.p.A., priority 2001, dated 2007)

Test system: fibroblasts
Assay: collagen metabolism / amino acid up-take by fibroblasts
Format: cell-based
Excerpt: […]. An improved synthesis of collagen means a faster substitution of the degraded old fibers of collagen with the new ones.

Row | Compound | activity on collagen metabolism | capability of the fibroblasts to up-take amino acids such as L-Proline and L-Hydroxyproline
1 | C[C@H]1[C@H](C)CC[C@]2(C(=O)O)CC[C@]3(C)C(=CC[C@@H]4[C@@]5(C)C[C@@H](O)[C@H](O)[C@@](C)(CO)[C@@H]5[C@H](O)C[C@]43C)[C@H]12 [madecassic acid] | strong activity | improve
2 | C[C@H]1[C@H](C)CC[C@]2(C(=O)O)CC[C@]3(C)C(=CC[C@@H]4[C@@]5(C)C[C@@H](O)[C@H](O)[C@@](C)(CO)[C@@H]5CC[C@]43C)[C@H]12 [asiatic acid] | strong activity | improve
